Patent publication US20050096323A1, “Diketopiperazine derivatives to inhibit thrombin” (NovoScience Pharma Inc., priority 1999, published 2005)
Each block holds one molecule with its values, some of them ahead of it.

Experiments:
thrombin = target: T1, thrombin (Homo sapiens, UniProt P00734); assay: Thrombin inhibition constant (Ki), fluorogenic substrate assay; type: biochemical; conditions: Table II, method of example 9
T1 construct: purchased Sigma

urokinase = target: T2, urokinase (Homo sapiens, UniProt P00749); assay: Urokinase inhibition constant (Ki), fluorogenic substrate assay; type: biochemical; conditions: substrate N-Cbz-Gly-Gly-Arg-AMC
T2 construct: purchased Sigma
Description: (§1) The activity and selectivity of the present invention can be identified by determination of the inhibition constant (Ki) for serine proteases such thrombin and trypsin and fibrinolytic enzymes such as urokinase, plasmin and tissue plasminogen activator (tPA). All of enzymes are purchased from Sigma. The general assay conditions are as follows. The fluorogenic substrates are dissolved in DMSO and diluted using assay buffer containing 50 mM Tris.HCl (pH 7.8 at 25° C.), 0.1 M NaCl and 0.1% polyethylene glycol 8000 (PEG 8000). […] The assays were conducted using Hitachi F2500 spectrophotometer under ambient temperature and at the excitation and emission wavelengths of 383 nm and 455 nm, respectively. The typical progressive data of the enzymatic assays are shown in FIGS. 1-3, and the determination of inhibition constant (Ki) is shown in FIG. 4.

plasmin = target: T3, plasmin (Homo sapiens, UniProt P00747); assay: Plasmin inhibition constant (Ki), fluorogenic substrate assay; type: biochemical; conditions: substrate D-Ala-Leu-Lys-AMC
T3 construct: purchased Sigma
Description: as §1

[1] = target: T4, tissue plasminogen activator (tPA) (Homo sapiens, UniProt P00750); assay: tPA inhibition constant (Ki), fluorogenic substrate assay; type: biochemical; conditions: substrate Boc-L-(p-F) FPR-ANSNH-C2H5
T4 construct: purchased Sigma
Description: as §1

ICR mice = assay: Clotting time (CT) of mice whole blood after administration; type: in vivo
Description: Blood samples were collected using the capillary method 0.5 h and 1.5 h after i.v. injections and 1 h and 3 h after i.g. and clotting time of whole blood was measured.

SD rats [2] = assay: RT, TT, PT, APTT and FIB in rat plasma after administration; type: in vivo; design: FIB (Fibrillation) / RT (Clot Retraction Time) / TT (Thrombin Time): unit not given here; conditions: 2.5 mg/kg i.v.
Description: Blood was taken at 0.5 h and 1.5 h after i.v. injection and at 1 h and 3 h after i.g. and plasma RT,TT,PT,APTT and FIB were determined.

SD rats [3] = assay: Weight of deep vein thrombosis (inferior vena cava thrombi) in rats; type: in vivo, rat; conditions: 1.25 mg/kg i.v., 4 hours
Description: The drug was administered immediately after operation and, 4 hours later, the thrombi were collected and weighted.

SD rats [4] = assay: Acute myocardial infarction by coronary artery ligation in rats; type: in vivo, rat; conditions: for S point in electrocardiogram / T wave in electrocardiogram: reference drug 0.125 mg/kg i.v.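 On CK (u/ml): blood collected at end of 6 h (i.v.) or 8 h (intraduodenal) ECG observation.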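 On LDH (u/ml): blood collected at end of 6 h (i.v.) or 8 h (intraduodenal) ECG observation.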
Description: The drugs were administered 8 to 10 min after the coronary artery was ligated.

[5] = 0 min after ligation (before drug)
[6] = serum, reference drug, 0.125 mg/kg i.v.

T4 sequence (P00750 36-562, species assumed): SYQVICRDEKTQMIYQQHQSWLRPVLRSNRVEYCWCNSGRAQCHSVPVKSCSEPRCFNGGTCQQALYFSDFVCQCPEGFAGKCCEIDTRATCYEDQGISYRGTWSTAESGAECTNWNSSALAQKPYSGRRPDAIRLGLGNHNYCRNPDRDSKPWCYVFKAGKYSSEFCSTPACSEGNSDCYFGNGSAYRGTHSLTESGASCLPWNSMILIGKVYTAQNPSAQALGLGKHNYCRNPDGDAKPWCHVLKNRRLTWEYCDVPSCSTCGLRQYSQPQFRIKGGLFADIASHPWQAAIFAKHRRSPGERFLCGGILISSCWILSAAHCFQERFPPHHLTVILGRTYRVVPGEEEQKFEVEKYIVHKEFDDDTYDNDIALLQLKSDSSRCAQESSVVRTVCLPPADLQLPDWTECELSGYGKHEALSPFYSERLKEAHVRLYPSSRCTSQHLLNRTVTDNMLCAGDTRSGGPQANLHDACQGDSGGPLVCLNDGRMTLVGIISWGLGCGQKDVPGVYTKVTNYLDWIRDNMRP
T3 sequence (P00747 581-810 limits assumed, species assumed): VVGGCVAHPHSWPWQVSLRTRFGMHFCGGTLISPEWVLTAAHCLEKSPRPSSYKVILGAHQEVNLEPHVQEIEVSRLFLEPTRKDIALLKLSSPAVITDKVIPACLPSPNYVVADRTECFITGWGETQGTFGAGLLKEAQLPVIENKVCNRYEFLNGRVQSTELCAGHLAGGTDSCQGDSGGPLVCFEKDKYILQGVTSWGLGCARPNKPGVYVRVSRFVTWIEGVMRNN
T3 sequence (P00747 97-580 partner limits assumed, species assumed): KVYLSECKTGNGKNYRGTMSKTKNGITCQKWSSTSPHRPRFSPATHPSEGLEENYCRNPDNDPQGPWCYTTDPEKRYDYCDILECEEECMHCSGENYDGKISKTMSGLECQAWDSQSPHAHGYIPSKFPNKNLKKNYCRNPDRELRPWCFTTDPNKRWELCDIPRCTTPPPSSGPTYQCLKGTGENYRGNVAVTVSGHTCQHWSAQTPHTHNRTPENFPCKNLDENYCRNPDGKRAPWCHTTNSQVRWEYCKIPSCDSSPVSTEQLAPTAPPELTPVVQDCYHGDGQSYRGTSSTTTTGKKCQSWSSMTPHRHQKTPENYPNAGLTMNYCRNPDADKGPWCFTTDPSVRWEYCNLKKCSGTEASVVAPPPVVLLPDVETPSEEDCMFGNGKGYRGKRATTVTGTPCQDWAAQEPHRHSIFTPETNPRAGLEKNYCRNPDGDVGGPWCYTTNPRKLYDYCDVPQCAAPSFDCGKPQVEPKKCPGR

Ki (thrombin): 0.061 µM
Structure (SMILES): CCC1CCN2C(=O)C(CCCNC(=N)N)N(S(=O)(=O)c3cccc4c3NCC(C)C4)C(=O)C2C1 (stereo not shown) [compound 2]

Structure (SMILES): CC1CNc2c(cccc2S(=O)(=O)N[C@@H](CCCNC(=N)N)C(=O)N2CC[C@@H](C)C[C@@H]2C(=O)O)C1 (stereo partly shown) [Argatroban, reference compound]
Ki (urokinase): 999 µM
Ki (plasmin): 372 µM
Ki [1]: 777 µM
CT (clotting time of whole blood) (ICR mice; 2.5 mg/kg i.v. group, before administration): 133.28 ± 26.21
CT (clotting time of whole blood) (ICR mice; 2.5 mg/kg i.v., 0.5 h): 170.33 ± 28.34
CT (clotting time of whole blood) (ICR mice; 2.5 mg/kg i.v., 1.5 h): 156.11 ± 32.08
APTT (Activated Partial Prothromboplastin Time) (SD rats [2]; 0.5 h): 37.9 ± 10.2
PT (Prothrombin Time) (SD rats [2]; 0.5 h): 37.9 ± 8.6
RT (Clot Retraction Time) (SD rats [2]; 0.5 h): 91.2 ± 15.0
TT (Thrombin Time) (SD rats [2]; 0.5 h): 72.9 ± 20.1
APTT (Activated Partial Prothromboplastin Time) (SD rats [2]; 1.5 h): 30.1 ± 6.5
FIB (Fibrillation) (SD rats [2]; 1.5 h): 4.0 ± 0.9
PT (Prothrombin Time) (SD rats [2]; 1.5 h): 29.5 ± 8.5
RT (Clot Retraction Time) (SD rats [2]; 1.5 h): 77.4 ± 10.6
TT (Thrombin Time) (SD rats [2]; 1.5 h): 50.4 ± 12.3
Thrombi (mg) Dry weight (SD rats [3]): 6.26 ± 3.72 mg
Thrombi (mg) Wet weight (SD rats [3]): 18.04 ± 8.99 mg
S point in electrocardiogram (SD rats [4]; [5]): 0.35 ± 0.16
T wave in electrocardiogram (SD rats [4]; [5]): 0.23 ± 0.16
S point in electrocardiogram (SD rats [4]; 10 min after ligation): 0.36 ± 0.20
T wave in electrocardiogram (SD rats [4]; 10 min after ligation): 0.21 ± 0.18
S point in electrocardiogram (SD rats [4]; 30 min after ligation): 0.26 ± 0.15
T wave in electrocardiogram (SD rats [4]; 30 min after ligation): 0.16 ± 0.18
S point in electrocardiogram (SD rats [4]; 6 h after ligation): 0.19 ± 0.10
T wave in electrocardiogram (SD rats [4]; 6 h after ligation): 0.11 ± 0.10
Infarction Area (%) (SD rats [4]; reference drug, 0.125 mg/kg i.v.): 23.55 ± 7.95 %
CK (u/ml) (SD rats [4]; [6]): 55.92 ± 11.46 u/ml
LDH (u/ml) (SD rats [4]; [6]): 6259.5 ± 308.6 u/ml

Ki (thrombin): 1.58 µM
Structure (SMILES): CC1CNc2c(cccc2S(=O)(=O)N2C(=O)C3CC(C(C)(C)C)CCN3C(=O)C2CCCNC(=N)N)C1 (stereo not shown) [compound 4]

Ki (thrombin): 0.91 µM
Structure (SMILES): CC1CNc2c(cccc2S(=O)(=O)N2C(=O)C3CC(c4ccccc4)CCN3C(=O)C2CCCNC(=N)N)C1 (stereo not shown) [compound 3]
